Measurements published in patent US20200237700A1, “METHODS OF REDUCING OR PREVENTING OXIDATION OF SMALL DENSE LDL OR MEMBRANE POLYUNSATURATED FATTY ACIDS” (Amarin Pharmaceuticals Ireland Limited, priority 2015, published 2020).
Where “and” joins values, the source holds several entries; their conditions need not be identical. Identical values can stand only once.

Assays:
[1] = Small angle x-ray diffraction of cholesterol-enriched POPC model membranes, cholesterol domain peak intensity (Example 9); format: physicochemical
Experimental: The fatty acid stock solutions were stored at −20° C. until use. […] Samples were shell-dried under nitrogen gas and placed under vacuum for 3 hours to remove residual solvent at room temperature. After desiccation, each sample was resuspended in saline buffer (0.5 mM HEPES, 154 mM NaCl, pH 7.3) to yield a final phospholipid concentration of 2.5 mg/mL. Lipid suspensions were then vortexed for 3 minutes at ambient temperature to form MLVs. Membrane lipid vesicles were oriented for x-ray diffraction analysis as described by others (e.g., Herbette et al., Biophys. […] Briefly, a 100 μL aliquot of each MLV preparation (containing 250 μg MLV) was transferred to a Lucite® sedimentation cell fitted with an aluminum foil substrate designed to collect MLVs into a single membrane pellet upon centrifugation. […] After centrifugal orientation, sample supernatants were aspirated and aluminum foil substrates, each supporting a single membrane pellet, were removed from the sedimentation cells. Sample pellets were dried for 5-10 minutes at ambient conditions, mounted onto curved glass supports, and placed in hermetically-sealed, brass or glass containers (for immediate analysis or temporary storage, respectively). All x-ray diffraction experiments were conducted at 20° C., 74% relative humidity. The latter was established by exposing membrane samples to saturated solutions of L-(+)-tartaric acid (K2C4H4O6.½H2O) for at least 1 hour prior to experimental analysis. Oriented membrane samples were aligned at grazing incidence with respect to a collimated, mono-chromatic CuKα x-ray beam (Kα1 and Kα2 unresolved; λ=1.54 Å) produced by a Rigaku Rotaflex RU-200, high-brilliance microfocus generator (Rigaku-MSC, The Woodlands, Tex.) as previously described (Mason et al., Biophys. J., vol. 55(4), pages 769-778 (1989)). The samples were initially subjected to x-ray diffraction analysis at least 12 hours after formation of the membrane pellets and retested for up to several days. […] Collimation of the x-ray beam was achieved using a single Franks mirror. Diffraction data were collected on a one-dimensional, position-sensitive electron detector (Hecus X-ray Systems, Graz, Austria) at a sample-to-detector distance of 150 mm from the sample site. […] Routines written in Origin 8.6 (OriginLab Corporation, Northampton, Mass.) were used to determine total peak area (associated with all diffraction peaks in a given pattern) against which the second-order cholesterol domain peak was normalized. […] Differences between groups were analyzed using the two-tailed, Student's t-test (for comparisons between only two groups) or ANOVA followed by Dunnett or Student-Newman-Keuls multiple comparisons post-hoc analysis (for comparisons between three or more groups). […]

HUVECs exposed to oxLDL = test: NO and ONOO− release from HUVECs exposed to oxLDL, nanosensors (Example 8); format: cell-based, human
Experimental: Human umbilical vein endothelial cells (HUVECs) were isolated into primary cultures from female donors by Clonetics (San Diego, Calif.) and purchased as proliferating cells. All cell culture donors were healthy, with no pregnancy or prenatal complications. […] The confluent cells (4 to 5×10^5 cells/35 mm dish) were placed with minimum essential medium containing 3 mM L-arginine and 0.1 mM BH4 [(6R)-5,6,7,8-tetrahydrobiopterin]. Before experimental use, the cells (from second or third passage) were rinsed twice with Tyrode-HEPES buffer with 1.8 mM CaCl2.
The omega-3 fatty acids (O3FAs) cis-5,8,11,14,17-eicosapentaenoic acid (EPA) and docosahexaenoic acid (DHA) were purchased from Sigma-Aldrich (St. Louis, Mo.) and prepared initially at 11 mM in redistilled ethanol. Primary and secondary O3FA stock solutions were prepared and stored under argon at −20° C. […]
Oxidation was monitored by the use of measurements of TBARS. […] TBARS concentration was determined as malondialdehyde (MDA) equivalents with the use of an MDA standard curve. […]
The amperometric method (with a response time of 0.1 ms) provides a quantitative signal (current) that is directly proportional to changes (from basal levels) in NO or ONOO^− concentration. […] Basal NO or ONOO^− levels were measured by differential pulse voltammetry in separate experiments. […]

human sdLDL = test: Copper-induced sdLDL oxidation, TBARS (Example 7); format: biochemical
Experimental: (§1) An experiment to study the antioxidant effect of EPA in LDL and small dense […] performed. […] Fenofibrate, gemfibrozil, and niacin were purchased from Sigma-Aldrich. […] Vitamin E was also incubated with sample aliquots as a positive control.

[2] = test system: sdLDL isolated from human subjects under hyperglycemia; test: Glucose-induced sdLDL oxidation, TBARS/MDA (Example 10); format: biochemical; conditions: 10.0 μM; glucose 200 mg/dL
Experimental: Vitamin E (α-tocopherol) purchased from Sigma-Aldrich was prepared in ethanol at 1.0 mM (c=3.06×10^4 M^−1 cm^−1 at 294 nm) prior to experimental use. Test compounds were further diluted in ethanol or aqueous buffer as needed. Phosphate Buffered Saline (PBS) purchased from Sigma-Aldrich was prepared in double distilled water at 10 mM (138 mM NaCl, 2.7 mM KCl, pH 7.4). […] Lipid oxidation was measured by the colorimetric detection of malondialdehyde (MDA), a marker of oxidative stress. Data were presented as mean±SD for (n) separate samples or experiments. Differences between groups were analyzed using the unpaired, two-tailed Student's t-test (for comparisons between only two groups) or ANOVA followed by Student-Newman-Keuls multiple comparisons post hoc analysis (for comparisons between three or more groups).

[3] = test system: human LDL (unfractionated); test: Copper-induced unfractionated LDL oxidation, TBARS 1 hr (Example 7); format: biochemical; conditions: 10 μM
Experimental: as §1

[4] = EPA to phospholipid 1:30 (Table 3)

Compound	% Change (vs. Control) [1, 4] [%]	Relative Cholesterol Domain Peak Intensity [1, 4]	increased NO release (HUVECs exposed to oxLDL; ECs exposed to oxLDL, as compared to vehicle) [%]	sdLDL oxidation after 4 hours as compared to vehicle or DHA (human sdLDL; 10.0 μM, 4 hours)	inhibition of sdLDL oxidation vs vehicle (human sdLDL; each agent at 1.0 μM, 1 hr) [%]	inhibited TBARS formation / sdLDL oxidation vs vehicle (human sdLDL; each agent at 10 μM, 1 hr)	inhibited sdLDL oxidation as compared to vehicle controls [2] [%]	sdLDL oxidation (formation of MDA) [2] [µM]	inhibited TBARS formation compared to vehicle-treated control ([3]; unfractionated LDL) [%]	effect on cholesterol domains / domain size ([1]; drug-to-phospholipid mole ratio 1:30)	NO/ONOO− Ratio (HUVECs exposed to oxLDL; oxLDL 20 min, then treatment 1 hour, EPA 10 μM, ATM 1.0 μM)	effect on sdLDL oxidation as compared to vehicle-treated controls (human sdLDL; 10 μM, 1 hour)	glucose-induced sdLDL oxidation [2]	effect on unfractionated LDL oxidation as compared to vehicle-treated controls [3]
CC/C=C\C/C=C\C/C=C\C/C=C\C/C=C\CCCC(=O)O [EPA, cis-5,8,11,14,17-eicosapentaenoic acid]	−65.5 ± 17.1	14.6 ± 5.0	45	significantly inhibited sdLDL oxidation	19±8	93±2% and 92±8%	94	0.2 ± 0.1	> 90					
O=C(O)c1cccnc1 [niacin, nicotinic acid]										no significant changes in cholesterol domain size	2.00 ± 0.52	no significant effect	did not inhibit glucose-induced sdLDL oxidation	no significant effect
